Measured values reported in patent US20060069132A1, “Azolecarboxamide herbicides” (priority 2004, published 2006).

Experiments:
winter barley = assay: Test C postemergence herbicide test; assay type: in vivo, Hordeum vulgare
Method in brief: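 Scoring by eye, 12–14 days post-treatment, greenhouse-held plants vs. controls; 0 no effect, 100 complete control. Sprayed at 1–4 leaves (2–18 cm); paddy barnyardgrass at 2 leaves, flooded.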

chickweed = assay: Test C postemergence herbicide test; assay type: in vivo, Stellaria media
Method in brief: (§1)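 Greenhouse test with a 12–14 day hold after application and visual comparison with controls. Emerged plants were 1- to 4-leaf stage (2–18 cm) when sprayed postemergence, and the paddy barnyardgrass was at 2 leaves under flooded conditions. 100 = complete control.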

wheat = assay: Test C postemergence herbicide test; assay type: in vivo, Triticum aestivum
Method in brief: as §1

bermudagrass = assay: Test E pre-/postemergence herbicide test; assay type: in vivo, Cynodon dactylon; conditions: Preemergence
Method in brief: (§2)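 Pre-/postemergence spray, solvent + surfactant vehicle; post timing 1- to 4-leaf stage (2–18 cm). Greenhouse 12–14 d. Visual score 0 (no effect) to 100 (complete control) relative to controls.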

Surinam grass = assay: Test E pre-/postemergence herbicide test; assay type: in vivo, Urochloa decumbens; conditions: Preemergence
Method in brief: as §2

guineagrass = assay: Test E pre-/postemergence herbicide test; assay type: in vivo, Panicum maximum; conditions: Preemergence
Method in brief: as §2

Italian ryegrass = assay: Test E pre-/postemergence herbicide test; assay type: in vivo, Lolium multiflorum; conditions: Preemergence
Method in brief: as §2

common purslane = assay: Test E pre-/postemergence herbicide test; assay type: in vivo, Portulaca oleracea; conditions: Preemergence
Method in brief: as §2

broadleaf signalgrass = assay: Test E pre-/postemergence herbicide test; assay type: in vivo, Brachiaria platyphylla; conditions: Preemergence
Method in brief: as §2

common groundsel = assay: Test E pre-/postemergence herbicide test; assay type: in vivo, Senecio vulgaris; conditions: Preemergence
Method in brief: as §2

itchgrass = assay: Test E pre-/postemergence herbicide test; assay type: in vivo, Rottboellia cochinchinensis; conditions: Preemergence
Method in brief: as §2

quackgrass = assay: Test E pre-/postemergence herbicide test; assay type: in vivo, Elytrigia repens; conditions: Preemergence
Method in brief: as §2

Canada horseweed = assay: Test E pre-/postemergence herbicide test; assay type: in vivo, Erigeron Canadensis; conditions: Preemergence
Method in brief: as §2

[1] = Postemergence, 500 g ai/ha, scale 0 to 100
[2] = Postemergence, 250 g ai/ha, scale 0 to 100, 0 no effect, 100 complete control
[3] = postemergence, 125 g ai/ha, scale 0 to 100
[4] = postemergence, 62 g ai/ha, scale 0 to 100
[5] = 125 g ai/ha, scale 0 (no effect) to 100 (complete control)
[6] = 250 g ai/ha, scale 0 (no effect) to 100 (complete control)
[7] = 500 g ai/ha, scale 0 (no effect) to 100 (complete control)

CCNC(=O)c1cccc(NC(=O)c2cc(C(C)(C)C)nn2CC)n1 [Compound 144]
Barley, Winter plant response rating (winter barley; [1]): 40
Plant response rating, Barley, Winter (winter barley; Postemergence, 125 g ai/ha, scale 0 to 100, 0 no effect, 100 complete control): 20
Plant response rating, Barley, Winter (winter barley; [2]): 30
Plant response rating, Barley, Winter (winter barley; postemergence, 62 g ai/ha, scale 0 to 100 (0 no effect, 100 complete control)): 0
Chickweed plant response rating (chickweed; [1]): 100
Plant response rating, Chickweed (chickweed; [2]): 100
Plant response rating, Chickweed (chickweed; [3]): 100
Plant response rating, Chickweed (chickweed; [4]): 100
Wheat plant response rating (wheat; [1]): 30
Plant response rating, Wheat (wheat; [2]): 30
Plant response rating, Wheat (wheat; [3]): 30
Plant response rating, Wheat (wheat; [4]): 20
Plant response rating, Bermudagrass (bermudagrass; 62 g ai/ha, scale 0 to 100): 50
Plant response rating, Bermudagrass (bermudagrass; [5]): 80
Plant response rating, Bermudagrass (bermudagrass; [6]): 85
Plant response rating, Bermudagrass (bermudagrass; [7]): 90
Plant response rating, Surinam Grass (Surinam grass; 62 g ai/ha, scale 0 to 100): 10
Plant response rating, Surinam Grass (Surinam grass; 125 g ai/ha, scale 0 to 100): 50
Plant response rating, Surinam Grass (Surinam grass; [7]): 70
Plant response rating, Guineagrass (guineagrass; 62 g ai/ha, scale 0 to 100): 10
Plant response rating, Guineagrass (guineagrass; [5]): 20
Plant response rating, Guineagrass (guineagrass; [6]): 60
Plant response rating, Guineagrass (guineagrass; [7]): 80
Plant response rating, Ryegrass, Italian (Italian ryegrass; 62 g ai/ha, scale 0 to 100): 10
Plant response rating, Ryegrass, Italian (Italian ryegrass; [5]): 60
Plant response rating, Ryegrass, Italian (Italian ryegrass; [6]): 80
Plant response rating, Ryegrass, Italian (Italian ryegrass; [7]): 95
Plant response rating, Purslane (common purslane; 62 g ai/ha, scale 0 to 100): 0
Plant response rating, Purslane (common purslane; [5]): 20
Plant response rating, Purslane (common purslane; [6]): 90
Plant response rating, Purslane (common purslane; [7]): 100
Plant response rating, Signalgrass (broadleaf signalgrass; 62 g ai/ha, scale 0 to 100): 10
Plant response rating, Signalgrass (broadleaf signalgrass; [5]): 20
Plant response rating, Signalgrass (broadleaf signalgrass; [6]): 30
Plant response rating, Signalgrass (broadleaf signalgrass; [7]): 50
Plant response rating, Groundsel (common groundsel; 62 g ai/ha, scale 0 to 100): 10
Plant response rating, Groundsel (common groundsel; [5]): 100
Plant response rating, Groundsel (common groundsel; [6]): 100
Plant response rating, Groundsel (common groundsel; [7]): 100
Plant response rating, Itchgrass (itchgrass; 62 g ai/ha, scale 0 to 100): 20
Plant response rating, Itchgrass (itchgrass; [5]): 70
Plant response rating, Itchgrass (itchgrass; [6]): 70
Plant response rating, Itchgrass (itchgrass; [7]): 75
Plant response rating, Quackgrass (quackgrass; 62 g ai/ha, scale 0 to 100): 10
Plant response rating, Quackgrass (quackgrass; [5]): 30
Plant response rating, Quackgrass (quackgrass; [6]): 70
Plant response rating, Quackgrass (quackgrass; [7]): 80
Plant response rating, Horseweed (Canada horseweed; 62 g ai/ha, scale 0 to 100): 70
Plant response rating, Horseweed (Canada horseweed; [5]): 100
Plant response rating, Horseweed (Canada horseweed; [6]): 100
Plant response rating, Horseweed (Canada horseweed; [7]): 100
